Assay results as given in publication PMC10051798, “Thiosemicarbazide Derivatives Targeting Human TopoIIα and IDO-1 as Small-Molecule Drug Candidates for Breast Cancer Treatment” (International Journal of Molecular Sciences, 2023).
Converted amounts (≈) assume the structure as drawn. “And” between values parts separate entries of the source, which are not always exact repeats. Equal values may be shown once.

Tests used:
MDA-MB-231 cells = assay: Annexin V/propidium iodide flow cytometry (apoptosis), MDA-MB-231; format: cell-based, human; details: MDA-MB-231, 24 h, concentration not given
Description: (§1) Flow cytometry analyses for apoptosis induction by the compounds 1–3 and etoposide wereperformedusing an FITC Annexin V Apoptosis Detection Kit II (BD Pharmingen, San Diego, CA, USA). The rationale of the assay is based on the externalization of phosphatidylserine on the surface of apoptotic cells. In early and late apoptotic cells, the phosphatidylserine translocates into the outer layer of the membrane, which allows annexin V-FITC to attach. Propidium iodide (PI) is, in turn, a fluorescent dye that penetrates into the late apoptotic and necrotic cells with impaired cell membrane integrity. Therefore, using annexin V and PI, it is possible to distinguish four groups of cells: living cells, early apoptotic cells, late apoptotic cells and necrotic cells. MCF-7 and MDA-MB-231 cells were incubated with 10 and 20 µg/mL of compounds 1–3 and etoposide (reference drug) for 24 h. After incubation, the cells were dyed with FITC-labeled annexin V and PI. The analysis was performed on a BD FACS Canto II flow cytometer using FACSDiva software (version 6.1.3, BD Biosciences Systems, San Diego, CA, USA). The equipment was calibrated with BD Cytometer Setup and Tracking Beads (BDBiosciences, San Diego, CA, USA).

MCF-7 cells [1] = system: MCF-7 cells; parameters: method as in PMID 36345785; details: MTT; cited from earlier work
[2] = target: T1, MDR1 (p-glycoprotein) in MDA-MB-231 cells (Homo sapiens, UniProt P08183); assay: MDR transporter activity assay, MDR1 in MDA-MB-231; format: cell-based; details: 24 h
T1 construct: endogenous in cells; host or cells: MCF-7 and MDA-MB-231 cells
Experimental: An MDR Assay kit (Abcam, Cambridge, UK) was used following the manufacturer’s instructions. MCF-7 and MDA-MB-231 cells were incubated with compounds 1–3 (10 μg/mL and 20 μg/mL). After 24 h of incubation, the test cells were washed twice with 5 mL of PBS by centrifugation at 1200 rpm for 10 min. The supernatants were discarded and the cells were counted using a Scepter 3.0 handheld automated cell counter (Milipore, Burlington, MA, USA). Then, each of the tested samples was divided into three parts and analyzed. Tomeasure the activity of MDR1, MRP1 and BCRP (tubes 1–12), 5 μL of verapamil (MDR1 inhibitor) was added into tubes 1–3, 5 μL of MK-571 (MRP1 inhibitor) was added into tubes 4–6, 5 μL of noviobiocin (BCRP inhibitor) was added into tubes 7–9 and 125 μL DMEM with 1 μL of DMSO was added into tubes 10–12. Then, the samples were incubated at 37 °C for five minutes. After this time, 125 μL of Efflux Green Detection Reagent was added into tubes 1–12 and the samples were incubated for 30 min at 37 °C. After 25 min of incubation, 5 μL of PI was added to each tube. Thereafter, the samples were centrifuged for 10 min at 1200 rpm. The supernatants were discarded and the cells were resuspended in 500 μL of PBS and run on the flow cytometer immediately. Measurements were conducted on a BD FACSCanto II flow cytometer using FACSDiva software (version 6.1.3, BD Biosciences, San Diego, CA, USA). […] The calculations followed these formulas:MAFMDR1= 100 × (FMDR1 − F0)/FMDR1 MAFMRP= 100 × (FMRP − F0)/FMRP MAFBCRP= 100 × (FBCRP − F0)/FBCRP
• FMDR—MFI with MDR1 inhibitor (verapamil) • FMRP—MFI with MRP inhibitor (MK-571) • FBCRP—MFI with BCRP inhibitor (novobiocin) • F0—MFI without inhibitor
The theoretical range of the MAF values is between 0 and 100.

MCF-10A cells = assay: MTT viability assay, normal breast epithelial cells; format: cell-based, human; details: for IC50: Homo sapiens, MCF-10A, MTT, 24 h; for SIMCF-7 (selectivity index): IC50 MCF-10A/IC50 MCF-7; for SIMDA-MB-231 (selectivity index): IC50 MCF-10A/IC50 MDA-MB-231
Experimental: Human breast cancer cells, i.e., MCF-7 (estrogen-dependent breast cancer cells) and MDA-MB-231 (estrogen-independent breast cancer cells), as well as normal human breast epithelial cells (MCF-10A) were purchased from the American Type Culture Collection (ATCC, Manassas, VA, USA). MCF-7 and MDA-MB-231 cells were cultured in DMEM (Sigma Aldrich, St. Louis, MO, USA) supplemented with 10% fetal bovine serum (FBS), penicillin (100 U/mL) and streptomycin (100 μg/mL). MCF-10A cells were cultured in Mammary Epithelial Cell Growth Medium supplemented with BPE, hEGF, insulin, hydrocortisone, GA-1000 (Lonza, Basel, Switzerland), 10% fetal bovine serum (FBS), penicillin (100 U/mL) and streptomycin (100 μg/mL). The cells were grown in T25 Cell Culture EasyFlask (Nunc, Roskilde, Denmark) at 37 °C in a humidified atmosphere of 5% CO2.
MTT assays were performed to evaluate the cytotoxic activity of the investigated compounds (1–3) against MCF-10A cells. Asuspension of cells (1 × 10^5 cells/mL) was distributed onto 96-well plates at a volume of 100 μL/well. After attachment, the cells were treated with increased concentrations of the tested compounds in medium containing 2% FBS, and incubated for 24 h. Then, 15 μL of MTT working solution (5 mg/mL in PBS) was added to each well and the plates were incubated for 3 h. Subsequently, 100 μL of 10% SDS solution was added to each well in order to dissolve the formazan formed. After overnight incubation at 37 °C, the absorbance of the obtained solution was measured at λ= 570 nm using a microplate reader (Epoch, BioTek Instruments, Inc., Winooski, VT, USA). At least two independent experiments were performed in triplicate. IC50 values of the tested compounds were calculated using the IC50 online calculator [27].

MCF-7 cells [3] = assay: Annexin V/propidium iodide flow cytometry (apoptosis), MCF-7; format: cell-based, human; details: MCF-7, 24 h, concentration not given
Description: as §1

T1 sequence (P08183 whole entry): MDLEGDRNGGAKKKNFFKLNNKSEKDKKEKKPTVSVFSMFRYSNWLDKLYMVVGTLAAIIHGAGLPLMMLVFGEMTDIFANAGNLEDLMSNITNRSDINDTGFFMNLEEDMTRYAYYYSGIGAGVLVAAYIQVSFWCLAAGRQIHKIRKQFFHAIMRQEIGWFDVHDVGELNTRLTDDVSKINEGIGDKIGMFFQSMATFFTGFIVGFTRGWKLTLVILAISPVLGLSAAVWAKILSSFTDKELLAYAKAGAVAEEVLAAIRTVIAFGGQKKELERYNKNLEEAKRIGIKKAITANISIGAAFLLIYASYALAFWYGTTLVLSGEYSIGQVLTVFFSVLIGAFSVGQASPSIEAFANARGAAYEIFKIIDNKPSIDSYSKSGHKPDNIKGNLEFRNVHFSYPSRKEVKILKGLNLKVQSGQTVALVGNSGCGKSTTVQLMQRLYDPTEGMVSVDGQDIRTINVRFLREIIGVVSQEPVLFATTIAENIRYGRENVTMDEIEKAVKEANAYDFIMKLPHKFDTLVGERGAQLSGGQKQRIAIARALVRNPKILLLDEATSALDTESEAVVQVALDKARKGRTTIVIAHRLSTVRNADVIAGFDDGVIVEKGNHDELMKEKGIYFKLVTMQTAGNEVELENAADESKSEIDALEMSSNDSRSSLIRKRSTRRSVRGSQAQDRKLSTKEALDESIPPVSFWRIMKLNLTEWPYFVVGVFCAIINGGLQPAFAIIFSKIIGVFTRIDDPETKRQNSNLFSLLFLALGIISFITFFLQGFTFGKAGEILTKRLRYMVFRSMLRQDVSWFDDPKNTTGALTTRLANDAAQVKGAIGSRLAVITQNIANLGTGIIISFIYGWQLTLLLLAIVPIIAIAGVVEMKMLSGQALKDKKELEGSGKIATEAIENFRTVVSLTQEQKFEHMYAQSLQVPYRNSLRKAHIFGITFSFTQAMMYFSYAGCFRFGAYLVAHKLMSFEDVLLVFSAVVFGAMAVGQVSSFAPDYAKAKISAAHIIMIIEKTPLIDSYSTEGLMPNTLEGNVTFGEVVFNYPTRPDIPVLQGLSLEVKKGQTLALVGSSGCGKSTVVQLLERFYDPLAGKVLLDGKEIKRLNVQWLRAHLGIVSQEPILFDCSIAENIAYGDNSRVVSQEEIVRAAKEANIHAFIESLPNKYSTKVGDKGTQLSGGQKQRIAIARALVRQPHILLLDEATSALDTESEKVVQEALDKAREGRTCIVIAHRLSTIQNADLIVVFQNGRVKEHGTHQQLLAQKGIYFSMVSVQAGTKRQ

| SMILES | apoptotic cells (MDA-MB-231 cells) [%] | IC50 (MCF-7 cells [1]) [µM] | IC50 MCF-7 (MCF-7 cells [1]) [mg/L] | MAF MDR1 ([2]; MDA-MB-231, 10 µg/mL) | MAF MDR1 ([2]; MDA-MB-231, 20 µg/mL) | IC50 (MCF-10A cells) | SIMCF-7 (selectivity index) (MCF-10A cells) | SIMDA-MB-231 (selectivity index) (MCF-10A cells) | apoptotic cells (MCF-7 cells [3]) [%] |
| --- | --- | --- | --- | --- | --- | --- | --- | --- | --- |
| O=C(Cc1cccc2ccccc12)NNC(=S)Nc1ccc(/N=N/c2ccccc2)cc1 [Compound 2] | 70 | 20.9 ± 0.59 | 9.18 ± 0.26 (≈ 20.9 µM) | 13.3 | 11.1 | 42.7 µg/mL and 97.2 µM | 4.65 | 5.60 |  |
| O=C(NNC(=S)Nc1ccc(/N=N/c2ccccc2)cc1)c1ccccc1[N+](=O)[O-] [Compound 3] |  | 18.2 ± 1.36 | 7.67 ± 0.57 (≈ 18.2 µM) |  | < 20 | 40.5 µg/mL and 96.2 µM | 5.30 | 3.86 | ~68 |
